The assay concerns L1210 leukemia ip in BDF1 mice, survival T/C. As to the kind of experiment: NCI In Vivo Anticancer Drug Screen. Data for tumor model L1210 Leukemia (intraperitoneal) in B6D2F1 (BDF1) mice. The following applies: higher = longer survival. In outline:
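Antitumor effect is assessed in tumor-bearing animals. Survival in the compound arm is compared with a vehicle-dosed control arm and expressed as their quotient.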

Setting [1] is: endpoint: mean survival time, dose: 100.0 mg/kg/injection, schedule: Q04DX003 (ip), vehicle: Klucel (hydroxypropylcellulose) (HPC).
Where [2] appears, read: endpoint: mean survival time, dose: 200.0 mg/kg/injection, schedule: Q04DX003 (ip), vehicle: Klucel (hydroxypropylcellulose) (HPC).
Where [3] appears, read: endpoint: mean survival time, dose: 400.0 mg/kg/injection, schedule: Q04DX003 (ip), vehicle: Klucel (hydroxypropylcellulose) (HPC).
The mark [4] stands for this setting: endpoint: mean survival time, dose: 100.0 mg/kg/injection, schedule: Q01DX009 (ip), vehicle: Klucel (hydroxypropylcellulose) (HPC).
Setting [5] is: endpoint: mean survival time, dose: 200.0 mg/kg/injection, schedule: Q01DX009 (ip), vehicle: Klucel (hydroxypropylcellulose) (HPC).
Where [6] appears, read: endpoint: mean survival time, dose: 100.0 mg/kg/injection, schedule: Q01DX009 (ip), vehicle: saline with Tween-80.
Setting [7] is: endpoint: mean survival time, dose: 200.0 mg/kg/injection, schedule: Q01DX009 (ip), vehicle: saline with Tween-80.
Where [8] appears, read: endpoint: mean survival time, dose: 100.0 mg/kg/injection, schedule: Q01DX001 (ip), vehicle: saline with Tween-80.
Setting [9] is: endpoint: mean survival time, dose: 200.0 mg/kg/injection, schedule: Q01DX001 (ip), vehicle: saline with Tween-80.
Setting [10] is: endpoint: mean survival time, dose: 400.0 mg/kg/injection, schedule: Q01DX001 (ip), vehicle: saline with Tween-80.
[11] abbreviates: endpoint: mean survival time, dose: 50.0 mg/kg/injection, schedule: Q01DX009 (ip), vehicle: Klucel (hydroxypropylcellulose) (HPC).

Structures are written as SMILES. Values joined by “and” are separate entries in the source; they are usually repeats but may differ in a detail not shown here. Identical values can stand only once. Inconclusive results and toxic doses are left out.

Consider `CC12CCC3=C(OCCO3)C1=CCC1C2CCC2(C)C(O)CCC12` (configuration not stated), for which the T/C (endpoint: mean survival time, dose: 50.0 mg/kg/injection, schedule: Q01DX001 (sc), vehicle: steriod suspending solution) is 95 % of control; the T/C (endpoint: mean survival time, dose: 100.0 mg/kg/injection, schedule: Q01DX001 (sc), vehicle: steriod suspending solution) is 91 % of control; the T/C (endpoint: mean survival time, dose: 200.0 mg/kg/injection, schedule: Q01DX001 (sc), vehicle: steriod suspending solution) was 103 % of control; the T/C (endpoint: mean survival time, dose: 400.0 mg/kg/injection, schedule: Q01DX001 (sc), vehicle: steriod suspending solution) is 101 % of control.

Regarding `CCCCCCCCCCN=C(N)N/C(N)=N/S(=O)(=O)c1ccc(OCCCCCCCCC)cc1`, the T/C was 97 % of control (endpoint: mean survival time, dose: 100.0 mg/kg/injection, schedule: Q04DX002 (ip), vehicle: Klucel (hydroxypropylcellulose) (HPC)); 89 % of control (endpoint: mean survival time, dose: 200.0 mg/kg/injection, schedule: Q04DX002 (ip), vehicle: Klucel (hydroxypropylcellulose) (HPC)); 89 % of control (endpoint: mean survival time, dose: 400.0 mg/kg/injection, schedule: Q04DX002 (ip), vehicle: Klucel (hydroxypropylcellulose) (HPC)).

On to `O/N=C/c1nc2ccccc2s1`, for which the T/C runs as follows: under setting [1], 105 % of control; under setting [2], 91 % of control; under setting [3], 118 % of control.

For the compound `C=CS(=O)(=O)CCOc1ccc(Cl)cc1Cl`, the T/C reads like this: under setting [4], 96 % of control; under setting [5], 95 % of control.

Turning to `Nc1n[nH]c(N)n1.[Pt]`, the T/C runs as follows: (endpoint: mean survival time, dose: 50.0 mg/kg/injection, schedule: Q01DX009 (ip), vehicle: saline) 102 % of control; (endpoint: mean survival time, dose: 50.0 mg/kg/injection, schedule: Q04DX003 (ip), vehicle: saline) 97 % of control; (endpoint: mean survival time, dose: 100.0 mg/kg/injection, schedule: Q01DX009 (ip), vehicle: saline) 102 % of control; (endpoint: mean survival time, dose: 100.0 mg/kg/injection, schedule: Q04DX003 (ip), vehicle: saline) 102 % of control; (endpoint: mean survival time, dose: 200.0 mg/kg/injection, schedule: Q04DX003 (ip), vehicle: saline) 100 % of control.

As to `CCOC(=O)C(NC(=O)OCc1ccccc1)(OCc1ccccc1)C(C)C` (configuration not stated), the T/C reads like this: under setting [6], 105 % of control; under setting [7], 98 % of control; (endpoint: mean survival time, dose: 400.0 mg/kg/injection, schedule: Q01DX009 (ip), vehicle: saline with Tween-80) 100 % of control.

Turning to `CN=C(N)N(C)/N=C/c1ccccc1`, the T/C (endpoint: mean survival time, dose: 87.5 mg/kg/injection, schedule: Q04DX003 (ip), vehicle: Klucel (hydroxypropylcellulose) (HPC)) is 105 % of control.

`O=c1oc2c(CN3CCCCC3)c(O)ccc2c2c1CCCC2`: the T/C is, setting by setting: (endpoint: mean survival time, dose: 100.0 mg/kg/injection, schedule: Q01DX001 (ip), vehicle: carboxymethylcellulose (CMC)) 93 % of control; (endpoint: mean survival time, dose: 200.0 mg/kg/injection, schedule: Q01DX001 (ip), vehicle: carboxymethylcellulose (CMC)) 96 % of control; (endpoint: mean survival time, dose: 400.0 mg/kg/injection, schedule: Q01DX001 (ip), vehicle: carboxymethylcellulose (CMC)) 93 % of control.

As for `COc1ccc2c(ccc3oc([N+](=O)[O-])cc32)c1`, the T/C was 100 % of control (endpoint: median survival time, dose: 12.5 mg/kg/injection, schedule: Q01DX009 (ip), vehicle: Klucel (hydroxypropylcellulose) (HPC)); 95 % of control (endpoint: median survival time, dose: 25.0 mg/kg/injection, schedule: Q01DX009 (ip), vehicle: Klucel (hydroxypropylcellulose) (HPC)); 101 % of control (endpoint: median survival time, dose: 50.0 mg/kg/injection, schedule: Q01DX009 (ip), vehicle: Klucel (hydroxypropylcellulose) (HPC)); 108 % of control (endpoint: median survival time, dose: 100.0 mg/kg/injection, schedule: Q01DX009 (ip), vehicle: Klucel (hydroxypropylcellulose) (HPC)); 106 % of control (endpoint: median survival time, dose: 200.0 mg/kg/injection, schedule: Q01DX009 (ip), vehicle: Klucel (hydroxypropylcellulose) (HPC)).

Take `Nc1cc(Cl)c([N+](=O)[O-])c(N)n1`: the T/C (endpoint: mean survival time, dose: 100.0 mg/kg/injection, schedule: Q01DX001 (ip), vehicle: Klucel (hydroxypropylcellulose) (HPC)) was 101 % of control; the T/C (endpoint: mean survival time, dose: 200.0 mg/kg/injection, schedule: Q01DX001 (ip), vehicle: Klucel (hydroxypropylcellulose) (HPC)) is 106 % of control; the T/C (endpoint: mean survival time, dose: 400.0 mg/kg/injection, schedule: Q01DX001 (ip), vehicle: Klucel (hydroxypropylcellulose) (HPC)) was 108 % of control.

As for `O=C1c2ccccc2C(=O)N1/N=C/c1cc(Cl)cc(Cl)c1O`, the T/C (endpoint: mean survival time, dose: 75.0 mg/kg/injection, schedule: Q01DX001 (ip), vehicle: saline) is 91 % of control; the T/C (endpoint: mean survival time, dose: 150.0 mg/kg/injection, schedule: Q01DX001 (ip), vehicle: saline) is 93 % of control; the T/C (endpoint: mean survival time, dose: 300.0 mg/kg/injection, schedule: Q01DX001 (ip), vehicle: saline) is 93 % of control.

On to `CC(C)(O)Cc1ccc(Br)cc1`, for which the T/C is, setting by setting: (endpoint: mean survival time, dose: 50.0 mg/kg/injection, schedule: Q01DX009 (ip), vehicle: saline with Tween-80) 95 % of control; under setting [6], 103 % of control; under setting [7], 111 % of control.

As for `CCCCCCCC(=O)N(CCC(=O)O)C(=O)O`, the T/C was 88 % of control under setting [8], 96 % of control under setting [9] and 107 % of control under setting [10].

With `Cc1ccc(NC(=O)c2c(Cl)c(Cl)c(Cl)c(Cl)c2C(=O)O)cc1Cl`, the T/C by setting is: under setting [4], 100 % of control; under setting [1], 103 % of control; under setting [5], 98 % of control; under setting [2], 102 % of control; under setting [3], 96 % of control.

Regarding `CCCCCCCCCCSCCO`, the T/C (endpoint: mean survival time, dose: 100.0 mg/kg/injection, schedule: Q01DX001 (ip), vehicle: saline) was 102 % of control; the T/C (endpoint: mean survival time, dose: 200.0 mg/kg/injection, schedule: Q01DX001 (ip), vehicle: saline) is 102 % of control; the T/C (endpoint: mean survival time, dose: 400.0 mg/kg/injection, schedule: Q01DX001 (ip), vehicle: saline) is 97 % of control.

On to `C[S+](C)c1ccccc1NCc1ccccc1O`, for which the T/C runs as follows: under setting [8], 92 % of control; under setting [9], 93 % of control; under setting [10], 90 % of control.

Consider `C[n+]1cccc(NC(=O)c2ccc(NC(=O)c3ccc(C(=O)Nc4ccc(NC(=N)N)cc4)cc3)cc2)c1`, for which the T/C was 118 % of control (endpoint: mean survival time, dose: 0.3 mg/kg/injection, schedule: Q01DX009 (ip), vehicle: saline); 123 % of control (endpoint: mean survival time, dose: 0.6 mg/kg/injection, schedule: Q01DX009 (ip), vehicle: saline); 155 % of control (endpoint: mean survival time, dose: 1.3 mg/kg/injection, schedule: Q01DX009 (ip), vehicle: saline); 221 % of control (endpoint: mean survival time, dose: 2.0 mg/kg/injection, schedule: Q01DX009 (ip), vehicle: saline); 294 % of control (endpoint: mean survival time, dose: 3.0 mg/kg/injection, schedule: Q01DX009 (ip), vehicle: saline); 119 % of control and 124 % of control (endpoint: mean survival time, dose: 5.0 mg/kg/injection, schedule: Q01DX001 (ip), vehicle: saline). Moreover, the T/C (endpoint: mean survival time, dose: 5.0 mg/kg/injection, schedule: Q01DX009 (ip), vehicle: saline) was 193 % of control; the T/C (endpoint: mean survival time, dose: 15.0 mg/kg/injection, schedule: Q01DX009 (ip), vehicle: saline) is 123 % of control; the T/C (endpoint: mean survival time, dose: 20.0 mg/kg/injection, schedule: Q01DX001 (ip), vehicle: saline) was 178 % of control; the T/C (endpoint: mean survival time, dose: 40.0 mg/kg/injection, schedule: Q01DX001 (ip), vehicle: saline) is 201 % of control and 249 % of control.

As for `CCC(CC)CC1CN2CCc3cc(OC)c(OC)cc3C2CC1(O)CC` (configuration not stated), the T/C is 93 % of control (endpoint: mean survival time, dose: 3.12 mg/kg/injection, schedule: Q01DX009 (ip), vehicle: Klucel (hydroxypropylcellulose) (HPC)); 97 % of control (endpoint: mean survival time, dose: 6.25 mg/kg/injection, schedule: Q01DX009 (ip), vehicle: Klucel (hydroxypropylcellulose) (HPC)); 109 % of control (endpoint: mean survival time, dose: 12.5 mg/kg/injection, schedule: Q01DX009 (ip), vehicle: Klucel (hydroxypropylcellulose) (HPC)); 119 % of control (endpoint: mean survival time, dose: 25.0 mg/kg/injection, schedule: Q01DX009 (ip), vehicle: Klucel (hydroxypropylcellulose) (HPC)); 115 % of control (endpoint: mean survival time, dose: 25.0 mg/kg/injection, schedule: Q04DX003 (ip), vehicle: Klucel (hydroxypropylcellulose) (HPC)); 97 % of control under setting [11]. The T/C (endpoint: mean survival time, dose: 50.0 mg/kg/injection, schedule: Q04DX003 (ip), vehicle: Klucel (hydroxypropylcellulose) (HPC)) is 99 % of control.

For the compound `CCCC[N+]12CC=C3COC(=O)C(C)(O)C(C)(O)C(C)C(=O)OC(CC1)C32` (configuration not stated), the T/C was 92 % of control under setting [11], 95 % of control under setting [4] and 100 % of control under setting [5].

(Values after PubChem BioAssay AID248 (DTP/NCI, 2004).)
